The results in this text go back to patent US20070249590A1, “Substituted indolo[2,3-a]pyrrolo[3,4-c]carbazole compounds useful in treating kinase disorders” (priority 2005, published 2007).

For this assay, the target named is T1, JAK3 (JH1 and JH2 domain) (Homo sapiens, UniProt P52333).
T1 sequence (P52333 521-1111 limits assumed): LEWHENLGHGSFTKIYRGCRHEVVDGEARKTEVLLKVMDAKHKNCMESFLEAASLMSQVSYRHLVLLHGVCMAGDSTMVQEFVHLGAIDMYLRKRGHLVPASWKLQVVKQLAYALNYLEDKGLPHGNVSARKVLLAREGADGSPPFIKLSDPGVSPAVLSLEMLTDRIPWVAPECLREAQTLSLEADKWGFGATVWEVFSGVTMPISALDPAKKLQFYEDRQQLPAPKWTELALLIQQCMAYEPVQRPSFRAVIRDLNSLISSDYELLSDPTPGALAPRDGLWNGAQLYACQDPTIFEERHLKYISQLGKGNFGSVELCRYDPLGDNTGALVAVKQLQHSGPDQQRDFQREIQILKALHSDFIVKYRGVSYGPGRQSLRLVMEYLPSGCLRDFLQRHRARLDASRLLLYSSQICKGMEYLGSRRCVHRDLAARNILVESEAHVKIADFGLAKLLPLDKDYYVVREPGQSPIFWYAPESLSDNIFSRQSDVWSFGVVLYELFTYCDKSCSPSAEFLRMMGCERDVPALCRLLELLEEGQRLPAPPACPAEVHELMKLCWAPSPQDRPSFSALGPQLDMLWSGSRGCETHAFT
Put plainly: JAK3 Kinase Assay (ELISA of peptide substrate phosphorylation). As to conditions: purified JAK3 enzyme, 10 μM ATP, biotinylated peptide substrate, 1 hour at room temperature. The format is biochemical. As to the method:
JAK3 enzyme activity was assayed relative to enzyme phosphorylation using the method described herein.
Sf21 cells derived from the ovarian tissue of the fall armyworm Spodotera frugiperda were obtained from Pharmingen (San Diego, Calif.) and maintained at a temperature of about 26-28° C. in 1 l Bellco spinner flasks at 60-90 rpm. Cell viability was maintained at 95-100%, as determined by a tryptan blue dye exclusion test.
Sf21 cells were infected with a baculovirus expression vector for JAK3 (JH1 and JH2 domain). After 48 hours of infection, cells were harvested and lysed in Tris-saline (pH 7.6) containing 2% NP-40 and a combination of protease inhibitors (Aprotinin, Pepstatin A, Pefabloc, E-64, Leupeptin, and Benzamidine) on ice for 45 minutes.
The JAK3 enzyme was purified from the lysate using glutathione sepharose beads and the enzyme activity was assessed in Costar flat bottom EIA/RIA 96 well plates. The plates were coated with Neutravidin (110 μL) (Pierce Neutravidin Biotin-binding Protein 31000; 1 mg/mL 1:100) diluted in PBS for 1 hour at room temperature. The plates were washed with PBS-0.1% Tween (3 times) to remove unbound Neutravidin, then 1% BSA (150 NIL) in PBS was added to each well to block non-specific binding. The plates was incubated for 1 hour at room temperature and stored at −80° C. until use.
JAK3 enzyme solution (48 μL) in 1.25×TK buffer (62.5 mM HEPES pH 7.5, 12.5 mM MgCl2) containing DTT (42 mM) (Sigma, St. Louis, Mo.) was added to each well of a polypropylene 96 well plate.
A test compound (5 μL) diluted in DMSO (48 μL) and biotinylated peptide enzyme substrate (5 μg diluted in TK buffer containing 10 μM ATP) were added to each well using the double dispense feature of a multichannel electronic biohit. Control wells received DMSO vehicle (5 μL). The contents of the wells were mixed for approximately 8 seconds using a multitube vortexer and the reaction mixture was incubated for 1 hour at room temperature.
After incubation, an aliquot of reaction mixture (90 μL) was transferred into a washed Neutravidin coated plate. The plate was incubated for 15 minutes at room temperature and washed 3 times with PBS-T. PY99 anti-phosphotyrosine antibody (100 μL/well) (Santa Cruz #sc-7020HRP diluted 1:6000 in 1× antibody buffer) was added into each well and the plate was incubated for 40 minutes at room temperature. The antibody buffer contained 10% BSA, 100 mM Tris (pH 7.5), 1M NaCl and 1% Tween 20. The plate washed 3 times with PBS-T, then TMB (100 pLXSigma, St. Louis, Mo.) was added to the each well. The plate was incubated for another 40 mins at room temperature in the dark. The reaction was stopped by the addition of 1M H2SO4 (50 μL/well) and the optical density was read at 450/650 nm.
Test compounds were assayed in triplicate at 16 concentrations at half-log dilutions starting at 200 μM. A maximum and minimum signal for the assay was determined on each plate. The percent inhibition of a test compound was calculated according to the formula [formula]
For a series of test concentrations, the IC50 was derived by graphing percent inhibition against the log of the concentrations tested for a given compound. For those compounds without an IC50, the percent inhibition results are shown at a test concentration of 1 μM.
On the technique in general: In an ELISA, binding on a coated surface is turned into a signal by an enzyme label.
As usually defined, the IC50 is the concentration needed to halve the response being measured. Take `O=C1NCc2c1c1c3ccccc3n3c1c1c2c2ccccc2n1CCC(OC(=O)N1CCN(c2ccncc2)CC1)CC3` (stereo not shown) [Cpd 184, 12,13-{3-[(4-pyridin-4-yl-piperazin-1-yl)carbonyloxy]-pentan-1,5-yl}-6,7,12,13-tetrahydro-5-oxo-5H-indolo[2,3-a]pyrrolo[3,4-c]carbazole]: the IC50 came to 4360 nM.
For `O=C1NCc2c1c1c3cc(Br)ccc3n3c1c1c2c2ccccc2n1C/C=C\C3` [Cpd 6, 3-bromo-12,13-(but-2-en-1,4-yl)-6,7,12,13-tetrahydro-5-oxo-5H-indolo[2,3-a]pyrrolol [3,4-c]carbazole], the IC50 stood at 171 nM.
For the molecule `Cc1ccc(CNC(=O)OC2Cn3c4ccccc4c4c5c(c6c7ccccc7n(c6c43)CC2O)C(=O)NC5=O)o1` (stereo not shown) [Cpd 86, 12,13-(2-{[(5-methyl-furan-2-yl)methyl]carbamoyloxy}-3-hydroxy-butan-1,4-yl)-12,13-dihydro-5,7-dioxo-6H-indolo[2,3-a]pyrrolo[3,4-c]carbazole], the IC50 was 33 nM.
In the case of `CC(C)(C)NC(=O)OC1CCn2c3ccccc3c3c4c(c5c6ccccc6n(c5c32)C1)C(=O)NC4=O` (stereo not shown) [Cpd 40, 12,13-[2-(t-butylcarbamoyloxy)-butan-1,4-yl]-12,13-dihydro-5,7-dioxo-6H-indolo[2,3-a]pyrrolo[3,4-c]carbazole], the IC50 is > 400 nM.
On to `O=C1NCc2c1c1c3ccccc3n3c1c1c2c2ccccc2n1CC(COC(=O)N1CCN(CCO)CC1)C3` (stereo not shown) [Cpd 164, 12,13-(2-{[4-(2-hydroxy-ethyl)piperazin-1-yl]carbonyloxymethyl}-propan-1,3-yl)-6,7,12,13-tetrahydro-5-oxo-5H-indolo[2,3-a]pyrrolo[3,4-c]carbazole], for which the concentration for half-maximal inhibition (IC50) came to 377 nM.
Regarding `O=C1NCc2c1c1c3cc(/C=C/Cn4ccnc4)ccc3n3c1c1c2c2ccccc2n1CC(CO)C3` (stereo not shown) [Cpd 219, 3-[(1E)-3-1H-imidazol-1-yl-prop-1-en-1-yl]-12,13-(2-hydroxymethyl-propan-1,3-yl)-6,7,12,13-tetrahydro-5-oxo-5H-indolo[2,3-a]pyrrolo[3,4-c]carbazole], the half-inhibitory concentration (IC50) was 14 nM.
Regarding `O=C1NC(=O)c2c1c1c3ccccc3n3c1c1c2c2ccccc2n1CC(O)(C(=O)NCCCN1CCOCC1)C(O)C3` (stereo not shown) [Cpd 120, 12,13-{2-[(3-morpholin-4-yl-prop-1-yl)carbamoyl]-2,3-dihydroxy-butan-1,4-yl}-12,13-dihydro-5,7-dioxo-6H-indolo[2,3-a]pyrrolo[3,4-c]carbazole], the 50% inhibitory concentration (IC50) amounted to 17 nM.
Under `O=C(NC1CCN(Cc2ccccc2)CC1)OCC1Cn2c3ccccc3c3c4c(c5c6ccccc6n(c5c32)C1)C(=O)NC4` (stereo not shown) [Cpd 163, 12,13-{2-[(1-benzyl-piperidin-4-yl)carbamoyloxymethyl]-propan-1,3-yl}-6,7,12,13-tetrahydro-5-oxo-5H-indolo[2,3-a]pyrrolo[3,4-c]carbazole] stands ~1000 nM; under `COc1ccccc1N1CCN(C(=O)OC2CCn3c4ccccc4c4c5c(c6c7ccccc7n(c6c43)C2)C(=O)NC5=O)CC1` (stereo not shown) [Cpd 70, 12,13-(2-{[4-(2-methoxy-phenyl)piperazin-1-yl]carbonyloxy}-butan-1,4-yl)-12,13-dihydro-5,7-dioxo-6H-indolo[2,3-a]pyrrolo[3,4-c]carbazole], 71 nM; under `O=C(NCCCn1ccnc1)OC1Cn2c3ccccc3c3c4c(c5c6ccccc6n(c5c32)CC1O)C(=O)NC4=O` (stereo not shown) [Cpd 91, 12,13-{2-[(3-imidazol-1-yl-prop-1-yl)carbamoyloxy]-3-hydroxy-butan-1,4-yl}-12,13-dihydro-5,7-dioxo-6H-indolo[2,3-a]pyrrolo[3,4-c]carbazole], 44 nM.
Take `O=C1NC(=O)c2c1c1c3cc(Br)ccc3n3c1c1c2c2ccccc2n1CC(O)CC3` (stereo not shown) [Cpd 31, 3-bromo-12,13-(2-hydroxy-butan-1,4-yl)-12,13-dihydro-5,7-dioxo-6H-indolo[2,3-a]pyrrolo[3,4-c]carbazole]: the 50% inhibitory concentration (IC50) was 8 nM.
Under `O=C1NC(=O)c2c1c1c3ccccc3n3c1c1c2c2ccccc2n1CC(OC(=O)N1CCN(CCO)CC1)C(O)C3` (stereo not shown) [Cpd 104, 12,13-(2-{[4-(2-hydroxy-ethyl)piperazin-1-yl]carbonyloxy}-3-hydroxy-butan-1,4-yl)-12,13-dihydro-5,7-dioxo-6H-indolo[2,3-a]pyrrolo[3,4-c]carbazole] stands 127 nM.
On to `CN1CCN(CC(=O)Nc2ccc3c(c2)c2c4c(c5c6ccccc6n6c5c2n3CC(O)C(O)C6)CNC4=O)CC1` (stereo not shown) [Cpd 205, 3-{[(4-methyl-piperazin-1-yl)methylcarbonyl]amino}-12,13-(2,3-dihydroxy-butan-1,4-yl)-6,7,12,13-tetrahydro-5-oxo-5H-indolo[2,3-a]pyrrolo[3,4-c]carbazole], for which the half-inhibitory concentration (IC50) stood at 42 nM.
Regarding `CN1CCN(CCCNCc2ccc3c(c2)c2c4c(c5c6ccccc6n6c5c2n3CC(O)C(O)C6)CNC4=O)CC1` (stereo not shown) [Cpd 197, 3-{[3-(4-methyl-piperazin-1-yl)prop-1-yl]aminomethyl}-12,13-(2,3-dihydroxy-butan-1,4-yl)-6,7,12,13-tetrahydro-5-oxo-5H-indolo[2,3-a]pyrrolo[3,4-c]carbazole], the IC50 was 693 nM.
Regarding `O=C1NC(=O)c2c1c1c3ccccc3n3c1c1c2c2ccccc2n1CC(O)(C(=O)N1CCN(c2ccccn2)CC1)C(O)C3` (stereo not shown) [Cpd 131, 12,13-{2-[(4-pyridin-2-yl-piperazin-1-yl)carbonyl]-2,3-dihydroxy-butan-1,4-yl}-12,13-dihydro-5,7-dioxo-6H-indolo[2,3-a]pyrrolo[3,4-c]carbazole], the half-inhibitory concentration (IC50) is 78 nM.
With `O=C(NC1CCNCC1)OCC1(O)Cn2c3ccccc3c3c4c(c5c6ccccc6n(c5c32)C1)C(=O)NC4` (stereo not shown) [Cpd 178, 12,13-[2-hydroxy-2-(piperidin-4-yl-carbamoyloxymethyl)-propan-1,3-yl]-6,7,12,13-tetrahydro-5-oxo-5H-indolo[2,3-a]pyrrolo[3,4-c]carbazole], the half-maximal inhibitory concentration (IC50) amounted to 154 nM.
Take `O=C1NCc2c1c1c3ccccc3n3c1c1c2c2ccccc2n1CC(O)(COC(=O)N1CCC(N2CCCC2)CC1)C3` (stereo not shown) [Cpd 150, 12,13-{2-hydroxy-2-[(4-pyrrolidin-1-yl-piperidin-1-yl)carbonyloxymethyl]-propan-1,3-yl}-6,7,12,13-tetrahydro-5-oxo-5H-indolo[2,3-a]pyrrolo[3,4-c]carbazole]: the IC50 worked out at 45 nM.
Take `O=C1NC(=O)c2c1c1c3ccccc3n3c1c1c2c2ccccc2n1CC(OC(=O)N1CCN(C(c2ccccc2)c2ccccc2)CC1)C(O)C3` (stereo not shown) [Cpd 103, 12,13-{2-[(4-benzhydryl-piperazin-1-yl)carbonyloxy]-3-hydroxy-butan-1,4-yl}-12,13-dihydro-5,7-dioxo-6H-indolo[2,3-a]pyrrolo[3,4-c]carbazole]: the concentration for half-maximal inhibition (IC50) worked out at 436 nM.
In the case of `CN(C)C1CCN(C(=O)OC2Cn3c4ccccc4c4c5c(c6c7ccccc7n(c6c43)CC2O)C(=O)NC5=O)C1` (stereo not shown) [Cpd 100, 12,13-{2-[(3-dimethyl-pyrrolidin-1-yl)carbonyloxy]-3-hydroxy-butan-1,4-yl}-12,13-dihydro-5,7-dioxo-6H-indolo[2,3-a]pyrrolo[3,4-c]carbazole], the IC50 was 173 nM.
